In the series the test system is mouse bone marrow polychromatic erythrocytes. The note with it: mice, single oral gavage.

Structures are written as SMILES.

In the case of `O=P1(N(CCCl)CCCl)NCCCO1` (centres unmarked) [Cyclophosphamide monohydrate], the “bone marrow cytotoxicity (erythropoiesis)” value is recorded as “some cytotoxicity”. Besides, where the note is “48 hour time-point, p≦0.05”, the “incidence of micronucleated polychromatic erythrocytes” value is given as “significant increase”.

Values taken from patent US9241930B2, “Compositions and methods for treating viral diseases” (NovaDrug, LLC, priority 2011, dated 2016).
